pIC50: −log10 of the molar value.
What follows are compounds tested against T1, recombinant human ULK1 protein (1-649) (Homo sapiens, UniProt O75385) (assay: ULK1 inhibition assay (ADP Glo)). Settings: Table 1; 25 uM ATP, MBP substrate, one hour.
T1 construct: recombinant human ULK1 protein (1-649, SignalChem #U01-11G); purchased SignalChem U01-11G
T1 sequence (O75385 1-649): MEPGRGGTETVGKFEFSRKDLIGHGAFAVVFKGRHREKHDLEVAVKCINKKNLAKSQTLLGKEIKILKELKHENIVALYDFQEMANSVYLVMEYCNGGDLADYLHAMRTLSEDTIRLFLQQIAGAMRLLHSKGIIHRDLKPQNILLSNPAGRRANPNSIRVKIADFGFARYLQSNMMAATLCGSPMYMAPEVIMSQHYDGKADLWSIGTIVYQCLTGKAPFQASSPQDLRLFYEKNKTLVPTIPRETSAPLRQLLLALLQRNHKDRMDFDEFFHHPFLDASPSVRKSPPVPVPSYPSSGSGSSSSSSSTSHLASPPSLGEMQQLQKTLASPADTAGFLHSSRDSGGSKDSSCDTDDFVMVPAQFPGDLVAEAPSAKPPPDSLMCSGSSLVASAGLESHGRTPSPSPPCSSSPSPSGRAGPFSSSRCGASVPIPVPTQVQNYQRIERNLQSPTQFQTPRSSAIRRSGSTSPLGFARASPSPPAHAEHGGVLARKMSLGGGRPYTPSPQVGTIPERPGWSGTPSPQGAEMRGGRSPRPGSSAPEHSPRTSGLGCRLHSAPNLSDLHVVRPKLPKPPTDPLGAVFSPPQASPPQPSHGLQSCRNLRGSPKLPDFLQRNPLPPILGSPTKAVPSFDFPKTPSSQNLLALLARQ
Assay type: biochemical
How it was run: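 Recombinant ULK1 (2 ug/mL) phosphorylated myelin basic protein (80 ug/mL) at 25 uM ATP; ADP formed was detected by ADP-Glo after 1 h. Compounds ran in triplicate, 16-dose 3-fold serial dilution from 30 uM, to give IC50.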

Structure (SMILES) | pIC50
N[C@@H](CO)C(=O)N1CCc2cc(Nc3ncc(C(F)(F)F)c(NC4CC4)n3)ccc2C1 (stereo in doubt) [Compound A57] | 8.00 to 9.00
CS(=O)(=O)CCN1CCc2cc(Nc3ncc(C(F)(F)F)c(NC4CC4)n3)ccc2C1 [Compound A91] | 8.00 to 9.00
CNC(=O)c1ccccc1Nc1nc(Nc2ccc3c(c2)CCN(C(=O)[C@@H](N)CO)C3)ncc1Br (racemic) [Compound A139, 2-{2-[2-(2-Amino-3-hydroxy-propionyl)-1,2,3,4-tetrahydro-isoquinolin-6-ylamino]-5-bromo-pyrimidin-4-ylamino}-N-methyl-benzamide] | < 8.00
NS(=O)(=O)N1CCc2cc(Nc3ncc(C(F)(F)F)c(NC4CC4)n3)ccc2C1 [Compound A25] | > 9.00
FC(F)(F)c1cnc(Nc2ccc3c(c2)CCN(Cc2ccncc2)C3)nc1NC1CC1 [Compound A3] | > 9.00
FC(F)(F)c1cnc(Nc2ccc3c(c2)CN(Cc2ccncc2)CC3)nc1NC1CC1 [Compound A82] | > 9.00
N[C@H](CO)C(=O)N1CCc2cc(Nc3ncc(C(F)(F)F)c(NC4CC4)n3)ccc2C1 (stereo in doubt) [Compound A48] | > 9.00
Nc1ccc(CN2CCc3cc(Nc4ncc(C(F)(F)F)c(NC5CC5)n4)ccc3C2)cc1 [Compound A112] | < 8.00
CNC(=O)c1ccccc1Oc1nc(Nc2ccc3c(c2)CCN(CCOC)C3)ncc1C(F)(F)F [Compound A121, 2-((2-((2-(2-Methoxyethyl)-1,2,3,4-tetrahydroisoquinolin-6-yl)amino)-5-(trifluoromethyl)pyrimidin-4-yl)oxy)-N-methylbenzamide] | < 8.00
CC(=O)N1CCc2ccc(Nc3ncc(C(F)(F)F)c(NC4CC4)n3)cc2C1 [Compound A98] | 8.00 to 9.00
CNC(=O)c1ccccc1Nc1nc(Nc2ccc3c(c2)CN(S(N)(=O)=O)CC3)ncc1Br [Compound A161, 2-[5-Bromo-2-(2-sulfamoyl-1,2,3,4-tetrahydro-isoquinolin-7-ylamino)-pyrimidin-4-ylamino]-N-methyl-benzamide] | < 8.00
FC(F)(F)c1cnc(Nc2ccc3c(c2)CCN(CC2CNC2)C3)nc1NC1CC1 [Compound A41] | > 9.00
COCCN1CCc2cc(Nc3ncc(C(F)(F)F)c(N4CCc5ccccc54)n3)ccc2C1 [Compound A123, N-(4-(Indolin-1-yl)-5-(trifluoromethyl)pyrimidin-2-yl)-2-(2-methoxyethyl)-1,2,3,4-tetra-hydroisoquinolin-6-amine] | < 8.00
Oc1ccc(CN2CCc3cc(Nc4ncc(C(F)(F)F)c(NC5CC5)n4)ccc3C2)cc1 [Compound A77] | > 9.00
CNC(=O)c1ccccc1Oc1nc(Nc2ccc3c(c2)CCN(CCOC)C3)ncc1Cl [Compound A124, 2-((5-chloro-2-((2-(2-methoxyethyl)-1,2,3,4-tetrahydroisoquinolin-6-yl)amino)pyrimidin-4-yl)oxy)-N-methylbenzamide] | < 8.00
CN1CCc2cc(Nc3nccc(NC4CC4)n3)ccc2C1 [Compound A72] | < 8.00

Structure (SMILES) | pIC50
FC(F)(F)c1cnc(Nc2ccc3c(c2)CCN(C2CNC2)C3)nc1NC1CC1 [Compound A52] | > 9.00
CCN1CCc2cc(Nc3ncc(C(F)(F)F)c(NC4CC4)n3)ccc2C1 [Compound A60] | 8.00 to 9.00
CNC(=O)c1ccccc1Nc1nc(Nc2ccc3c(c2)CCNC3)ncc1Br [Compound A126, 2-[5-Bromo-2-(1,2,3,4-tetrahydro-isoquinolin-6-ylamino)-pyrimidin-4-ylamino]-N-methyl-benzamide] | < 8.00
COCCN1CCc2ccc(Nc3ncc(C(F)(F)F)c(NC4CC4)n3)cc2C1 [Compound A86] | > 9.00
COC(=O)N1CCc2cc(Nc3ncc(C(F)(F)F)c(NC4CC4)n3)ccc2C1 [Compound A4] | 8.00 to 9.00
CC(C)(C)OC(=O)NCCC(=O)N1CCc2cc(Nc3ncc(C(F)(F)F)c(NC4CC4)n3)ccc2C1 [Compound A29] | > 9.00
OCC(O)CN1CCc2cc(Nc3ncc(C(F)(F)F)c(NC4CC4)n3)ccc2C1 (stereo not shown) [Compound A13] | < 8.00
O=C(O)CCN1CCc2cc(Nc3ncc(C(F)(F)F)c(NC4CC4)n3)ccc2C1 [Compound A7] | > 9.00
CNC(=O)c1ccccc1Nc1nc(Nc2ccc3c(c2)CNCC3)ncc1Br [Compound A147, 2-[5-Bromo-2-(1,2,3,4-tetrahydro-isoquinolin-7-ylamino)-pyrimidin-4-ylamino]-N-methyl-benzamide] | < 8.00
CC(O)CN1CCc2cc(Nc3ncc(C(F)(F)F)c(NC4CC4)n3)ccc2C1 (stereo not shown) [Compound A70] | > 9.00
O=C(O)C[C@H](NC(=O)OCc1ccccc1)C(=O)N1CCc2cc(Nc3ncc(C(F)(F)F)c(NC4CC4)n3)ccc2C1 (racemic) [Compound A67] | > 9.00
NS(=O)(=O)N1CCc2ccc(Nc3ncc(C(F)(F)F)c(NC4CC4)n3)cc2C1 [Compound A76] | 8.00 to 9.00
O=C(OCCO)c1cnc(Nc2ccc3c(c2)CCNC3)nc1NC1CC1 [Compound A33] | < 8.00
CNC(=O)c1ccccc1Nc1nc(Nc2ccc3c(c2)CN(CC(C)O)CC3)ncc1Br (stereo not shown) [Compound A157, 2-{5-Bromo-2-[2-(2-hydroxy-propyl)-1,2,3,4-tetrahydro-isoquinolin-7-ylamino]-pyrimidin-4-ylamino}-N-methyl-benzamide] | < 8.00
COCCN1CCc2cc(Nc3ncc(C(F)(F)F)c(NC4CC4)n3)ccc2C1 [Compound A50] | > 9.00

Same assay, conditions: Table 2

Structure (SMILES) | pIC50
COc1cc(Nc2ncc(Br)c(Oc3ccccc3C(=O)N(C)O)n2)cc(OC)c1OC [Compound B15] | > 7.00
COC(=O)c1ccccc1Oc1nc(Nc2cccc(OC)c2)ncc1Br [Compound B23] | < 6.00
COc1cc(Nc2ncc(Br)c(Oc3ccccc3C(=O)N(C)CC#N)n2)cc(OC)c1OC [Compound B45] | 6.00 to 7.00
COC(=O)c1ccccc1Oc1nc(Nc2ccc(O)cc2)ncc1Br [Compound B36] | < 6.00
COC(=O)c1ccccc1Oc1nc(Nc2ccc3[nH]ccc3c2)ncc1Br [Compound B31] | < 6.00
COC(=O)c1ccccc1Oc1nc(Nc2ccc(SC)cc2)ncc1Br [Compound B32] | < 6.00
CNC(=O)c1ccccc1Oc1nc(Nc2ccc3c(c2)OCCO3)ncc1C(F)(F)F [Compound B51, 2-((2-((2,3-Dihydrobenzo[b][1,4]dioxin-6-yl)amino)-5-(trifluoromethyl)pyrimidin-4-yl)oxy)-N-methylbenzamide] | < 6.00
COc1cc(Nc2ncc(Br)c(Oc3ccccc3C(=O)N3CCC3)n2)cc(OC)c1OC [Compound B50] | < 6.00
COC(=O)c1ccccc1Oc1nc(Nc2cnc3[nH]ccc3c2)ncc1Br [Compound B18] | < 6.00
COc1cc(Nc2ncc(Br)c(Oc3ccccc3C(=O)N(C)CCO)n2)cc(OC)c1OC [Compound B3] | 6.00 to 7.00
COC(=O)c1ccccc1Oc1nc(Nc2cccc(OC(F)F)c2)ncc1Br [Compound B29] | < 6.00

Same assay, conditions: Table 3

Structure (SMILES) | pIC50
COc1cc(Nc2ncc(Br)c(Nc3ccccc3CN(CCO)CCO)n2)cc(OC)c1OC [Compound C27] | 7.00 to 8.30
OCCN(CCO)c1ccc(Nc2ncc(Br)c(Nc3ccccc3CO)n2)cc1 [Compound C16] | > 8.30
COc1cc(Nc2ncc(Br)c(Nc3ccccc3C(=O)O)n2)cc(OC)c1OC [Compound E2] | > 8.30
COc1cc(Nc2ncc(Br)c(Nc3ccccc3SC)n2)cc(OC)c1OC [Compound E3] | 7.00 to 8.30
O=C(NCc1ccc(Nc2ncc(C(F)(F)F)c(NC3CC3)n2)cc1)OCc1ccccc1 [Compound D2] | > 8.30
COC(=O)c1ccccc1Nc1nc(Nc2cc(OC)c(OC)c(OC)c2)ncc1Br [Compound E1] | > 8.30
OCc1ccccc1Nc1nc(Nc2ccccc2)ncc1Br [Compound C4] | < 7.00
COc1cc(Nc2ncc(Br)c(Nc3ccccc3C(=O)NCC(F)(F)F)n2)cc(OC)c1OC [Compound E23, 2-((5-Bromo-2-((3,4,5-trimethoxyphenyl)amino)pyrimidin-4-yl)amino)-N-(2,2,2-trifluoroethyl)benzamide] | 7.00 to 8.30
COc1cc(Nc2ncc(Br)c(Nc3ccccc3CN(C)CCO)n2)cc(OC)c1OC [Compound C23] | < 7.00
COc1cccc(Nc2ncc(Br)c(Nc3ccccc3CO)n2)c1 [Compound C6] | > 8.30
CNC(=O)c1ccccc1Nc1nc(Nc2ccc(OC)cc2)ncc1Br [Compound E15, 2-((5-Bromo-2-((4-methoxyphenyl)amino)pyrimidin-4-yl)amino)-N-methylbenzamide] | < 7.00
CN(C)C1Cc2ccc(Nc3ncc(C(F)(F)F)c(NC4CC4)n3)cc2C1 (stereo not shown) [Compound D6] | > 8.30
COc1cc(Nc2ncc(Br)c(Nc3ccccc3C(=O)NCC(F)F)n2)cc(OC)c1OC [Compound E22, 2-((5-Bromo-2-((3,4,5-trimethoxyphenyl)amino)pyrimidin-4-yl)amino)-N-(2,2-difluoroethyl)benzamide] | 7.00 to 8.30

— US20230135635A1, “INHIBITORS OF ULK1/2 AND METHODS OF USING SAME” (SALK INSTITUTE FOR BIOLOGICAL STUDIES, priority 2020, published 2023)
